# Experimental data taken from patent US8394952B2 (Vertex Pharmaceuticals Incorporated, priority 2006, dated 2013).
# Molecular target: Plk1 (Homo sapiens, UniProt P53350)
# Assay: biochemical
# Plk1, sequence (P53350 20-338): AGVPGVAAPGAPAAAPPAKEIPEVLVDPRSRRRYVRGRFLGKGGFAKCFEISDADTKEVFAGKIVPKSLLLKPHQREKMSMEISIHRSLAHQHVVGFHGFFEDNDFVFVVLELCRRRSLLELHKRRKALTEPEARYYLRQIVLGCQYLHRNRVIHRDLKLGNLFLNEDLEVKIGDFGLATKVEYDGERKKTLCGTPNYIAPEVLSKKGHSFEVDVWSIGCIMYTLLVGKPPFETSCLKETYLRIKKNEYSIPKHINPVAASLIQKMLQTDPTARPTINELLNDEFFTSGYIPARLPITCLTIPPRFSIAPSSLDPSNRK
row,SMILES,Ki
1,"COc1cc(C(=O)NC2CC2)ccc1Nc1ncc2c(n1)N(C1CCCC1)C[C@H](C)C(=O)N2C [Compound I-175, 4-((S)-9-cyclopentyl-6,7,8,9-tetrahydro-5,7-dimethyl-6-oxo-5H-pyrimido[4,5-b][1,4]diazepin-2-ylamino)-N-cyclopropyl-3-methoxybenzamide]",< 10 nM
2,"COc1cc(C(=O)NC2CCCC2)ccc1Nc1ncc2c(n1)N(C1CCCC1)CC(C)(C)C(=O)N2C [Compound I-129, 4-(9-cyclopentyl-6,7,8,9-tetrahydro-5,7,7-trimethyl-6-oxo-5H-pyrimido[4,5-b][1,4]diazepin-2-ylamino)-N-cyclopentyl-3-methoxybenzamide]",< 10 nM
3,"COc1cc(C(=O)NC2CCCC2)ccc1Nc1ncc2c(n1)N(C1CCCC1)C[C@@H](C)C(=O)N2C [Compound I-185, (R)—N-cyclopentyl-4-(9-cyclopentyl-5,7-dimethyl-6-oxo-6,7,8,9-tetrahydro-5H-pyrimido[4,5-b][1,4]diazepin-2-ylamino)-3-methoxybenzamide]",< 10 nM
4,"COc1cc(C(=O)NCCc2cncn2C)ccc1Nc1ncc2c(n1)N(C1CCCC1)CC(C)(C)C(=O)N2C [Compound I-27, 4-(9-cyclopentyl-6,7,8,9-tetrahydro-5,7,7-trimethyl-6-oxo-5H-pyrimido[4,5-b][1,4]diazepin-2-ylamino)-3-methoxy-N-(2-(1-methyl-1H-imidazo-5-yl)ethyl)benzamide]",< 10 nM
5,COc1cc(C(=O)N[C@@H]2CC[C@@H](O)C2)ccc1Nc1ncc2c(n1)N(C1CCCC1)CC(C)(C)C(=O)N2C [Compound I-258],< 10 nM
6,"COc1cc(C(=O)N[C@H]2CC[C@H](OC(C)=O)CC2)ccc1Nc1ncc2c(n1)N(C1CCCC1)CC(C)(C)C(=O)N2C [Compound I-280, (1r,4r)-4-(4-(9-cyclopentyl-5,7,7-trimethyl-6-oxo-6,7,8,9-tetrahydro-5H-pyrimido[4,5-b][1,4]diazepin-2-ylamino)-3-methoxybenzamido)cyclohexyl acetate]",< 10 nM
7,"CN1C(=O)C(C)(C)CN(C2CCCC2)c2nc(Nc3cccc4cn(C)nc34)ncc21 [Compound I-91, 2-(2-methyl-2H-indazol-7-ylamino)-9-cyclopentyl-8,9-dihydro-5,7,7-trimethyl-5H-pyrimido[4,5-b][1,4]diazepin-6(7H)-one]",10 to 100 nM
8,"CN1C(=O)C(C)(C)CN(C2CCCC2)c2nc(Nc3cccc(N4CCCC4=O)c3)ncc21 [Compound I-149, 2-(3-(2-oxopyrrolidin-1-yl)phenylamino)-9-cyclopentyl-8,9-dihydro-5,7,7-trimethyl-5H-pyrimido[4,5-b][1,4]diazepin-6(7H)-one]",10 to 100 nM
9,"CNC(=O)c1ccc(Nc2ncc3c(n2)N(c2ccccc2)CC(C)(C)C(=O)N3C)c(OC)c1 [Compound I-40, 4-(6,7,8,9-tetrahydro-5,7,7-trimethyl-6-oxo-9-phenyl-5H-pyrimido[4,5-b][1,4]diazepin-2-ylamino)-3-methoxy-N-methylbenzamide]",10 to 100 nM
10,"COc1cc(C(=O)NC2CCN(C)CC2)ccc1Nc1ncc2c(n1)N(C)CCC(=O)N2C [Compound I-14, 4-(6,7,8,9-tetrahydro-5,9-dimethyl-6-oxo-5H-pyrimido[4,5-b][1,4]diazepin-2-ylamino)-3-methoxy-N-(1-methylpiperidin-4-yl)benzamide]",10 to 100 nM
11,"COc1cc(C(=O)NCCOC(=O)N2CC[C@@H](F)C2)ccc1Nc1ncc2c(n1)N(C1CCCC1)CC(C)(C)C(=O)N2C [Compound I-39, (R)-3-Fluoro-pyrrolidine-1-carboxylic acid 2-[4-(9-cyclopentyl-5,7,7-trimethyl-6-oxo-6,7,8,9-tetrahydro-5H-pyrimido[4,5-b][1,4]diazepin-2-ylamino)-3-methoxybenzoylamino]-ethyl ester]",< 10 nM
12,"COc1cc(C2=NCCN2)ccc1Nc1ncc2c(n1)N(C1CCCC1)CC(C)(C)C(=O)N2C [Compound I-256, 9-cyclopentyl-2-(4-(4,5-dihydro-1H-imidazol-2-yl)-2-methoxyphenylamino)-5,7,7-trimethyl-8,9-dihydro-5H-pyrimido[4,5-b][1,4]diazepin-6(7H)-one]",< 10 nM
13,"COc1cc(C(=O)NCc2ccncc2)ccc1Nc1ncc2c(n1)N(C1CCCC1)CC(C)(C)C(=O)N2C [Compound I-212, 4-(9-cyclopentyl-5,7,7-trimethyl-6-oxo-6,7,8,9-tetrahydro-5H-pyrimido[4,5-b][1,4]diazepin-2-ylamino)-3-methoxy-N-(pyridin-4-ylmethyl)benzamide]",< 10 nM
14,"COc1cc(C(=O)N[C@@H]2CCOC2)ccc1Nc1ncc2c(n1)N(C1CCCC1)CC(C)(C)C(=O)N2C [Compound I-187, (R)-4-(9-cyclopentyl-5,7,7-trimethyl-6-oxo-6,7,8,9-tetrahydro-5H-pyrimido[4,5-b][1,4]diazepin-2-ylamino)-3-methoxy-N-(tetrahydrofuran-3-yl)benzamide]",< 10 nM
15,"COc1cc(C(=O)NC2CN(C(C)C)C2)ccc1Nc1ncc2c(n1)N(C1CCCC1)CC(C)(C)C(=O)N2C [Compound I-52, 4-(9-cyclopentyl-6,7,8,9-tetrahydro-5,7,7-trimethyl-6-oxo-5H-pyrimido[4,5-b][1,4]diazepin-2-ylamino)-N-(1-isopropylazetidin-3-yl)-3-methoxybenzamide]",< 10 nM
16,"COc1cc(C(=O)N[C@H]2CC[C@H](O)CC2)ccc1Nc1ncc2c(n1)N(C1CCCC1)CC(C)(C)C(=O)N2C [Compound I-204, 4-(9-cyclopentyl-5,7,7-trimethyl-6-oxo-6,7,8,9-tetrahydro-5H-pyrimido[4,5-b][1,4]diazepin-2-ylamino)-N-((1R,4R)-4-hydroxycyclohexyl)-3-methoxybenzamide]",< 10 nM
17,"CN1C(=O)C(C)(C)CN(C2CCCC2)c2nc(Nc3cccc(N)c3)ncc21 [Compound I-116, 2-(3-aminophenylamino)-9-cyclopentyl-8,9-dihydro-5,7,7-trimethyl-5H-pyrimido[4,5-b][1,4]diazepin-6(7H)-one]",10 to 100 nM
18,COc1cc(C(=O)NC2CCN(C(=O)OC(C)(C)C)CC2)ccc1Nc1ncc2c(n1)N(C1CCCC1)CC(C)(C)C(=O)N2C [Compound I-95],< 10 nM
19,COc1cc(C(=O)NCCCO)ccc1Nc1ncc2c(n1)N(C1CCCC1)CC(C)(C)C(=O)N2C [Compound I-241],< 10 nM
20,"COc1cc(C(=O)N[C@H]2CCN(CC3CC3)C2)ccc1Nc1ncc2c(n1)N(C1CCCC1)CC(C)(C)C(=O)N2C [Compound I-75, 4-(9-cyclopentyl-6,7,8,9-tetrahydro-5,7,7-trimethyl-6-oxo-5H-pyrimido[4,5-b][1,4]diazepin-2-ylamino)-N—((S)-1-(cyclopropylmethyl)pyrrolidin-3-yl)-3-methoxybenzamide]",< 10 nM
21,"COCC(=O)Nc1cccc(Nc2ncc3c(n2)N(C2CCCC2)CC(C)(C)C(=O)N3C)c1 [Compound I-147, N-(3-(9-Cyclopentyl-6,7,8,9-tetrahydro-5,7,7-trimethyl-6-oxo-5H-pyrimido[4,5-b][1,4]diazepin-2-ylamino)phenyl)-2-methoxyacetamide]",10 to 100 nM
22,"COc1cc(C(=O)NC[C@@H]2CCCC[C@@H]2O)ccc1Nc1ncc2c(n1)N(C1CCCC1)CC(C)(C)C(=O)N2C [Compound I-216, 4-(9-cyclopentyl-5,7,7-trimethyl-6-oxo-6,7,8,9-tetrahydro-5H-pyrimido[4,5-b][1,4]diazepin-2-ylamino)-N-(((1S,2S)-2-hydroxycyclohexyl)methyl)-3-methoxybenzamide]",< 10 nM
23,"COc1cc(C(=O)NC2(CO)CCCC2)ccc1Nc1ncc2c(n1)N(C1CCCC1)CC(C)(C)C(=O)N2C [Compound I-254, 4-(9-cyclopentyl-5,7,7-trimethyl-6-oxo-6,7,8,9-tetrahydro-5H-pyrimido[4,5-b][1,4]diazepin-2-ylamino)-N-(1-(hydroxymethyl)cyclopentyl)-3-methoxybenzamide]",< 10 nM
24,"CC[C@H]1CN(C2CCCC2)c2nc(Nc3ccc(C(=O)NC4CCN(C)CC4)cc3OC)ncc2N(C)C1=O [Compound I-113, 4-((S)-9-cyclopentyl-7-ethyl-6,7,8,9-tetrahydro-5-methyl-6-oxo-5H-pyrimido[4,5-b][1,4]diazepin-2-ylamino)-3-methoxy-N-(1-methylpiperidin-4-yl)benzamide]",< 10 nM
25,"CNC(=O)c1ccc(Nc2ncc3c(n2)N([C@@H]2CCOC2)CC(C)(C)C(=O)N3C)c(OC)c1 [Compound I-181, 4-(6,7,8,9-tetrahydro-9-((R)-tetrahydrofuran-3-yl)-5,7,7-trimethyl-6-oxo-5H-pyrimido[4,5-b][1,4]diazepin-2-ylamino)-3-methoxy-N-methylbenzamide]",< 10 nM
26,"COc1cc(C(=O)NC2CCNCC2)ccc1Nc1ncc2c(n1)N(C1CCCC1)CCC(=O)N2C [Compound I-6, 4-(9-cyclopentyl-6,7,8,9-tetrahydro-5-methyl-6-oxo-5H-pyrimido[4,5-b][1,4]diazepin-2-ylamino)-3-methoxy-N-(piperidin-4-yl)benzamide]",< 10 nM
27,"COc1cc(C(=O)N[C@H]2CCN(C(C)C)C2)ccc1Nc1ncc2c(n1)N(C1CCCC1)CC(C)(C)C(=O)N2C [Compound I-73, 4-(9-cyclopentyl-6,7,8,9-tetrahydro-5,7,7-trimethyl-6-oxo-5H-pyrimido[4,5-b][1,4]diazepin-2-ylamino)-N—((S)-1-isoipropylpyrrolidin-3-yl)-3-methoxybenzamide]",< 10 nM
28,"CC(=O)N1CCc2cc(Nc3ncc4c(n3)N(C3CCCC3)CC(C)(C)C(=O)N4C)ccc21 [Compound I-79, 2-(1-acetylindolin-5-ylamino)-9-cyclopentyl-8,9-dihydro-5,7,7-trimethyl-5H-pyrimido[4,5-b][1,4]diazepin-6(7H)-one]",10 to 100 nM
29,"COc1cc(C(=O)NCc2ccco2)ccc1Nc1ncc2c(n1)N(C1CCCC1)CC1(CC1)C(=O)N2C [Compound I-248, 4-(9′-cyclopentyl-5′-methyl-6′-oxo-5′,6′,8′,9′-tetrahydrospiro[cyclopropane-1,7′-pyrimido[4,5-b][1,4]diazepine]-2′-ylamino)-N-(furan-2-ylmethyl)-3-methoxybenzamide]",< 10 nM
30,"COc1cc(C(=O)NCC2CCC2)ccc1Nc1ncc2c(n1)N(C1CCCC1)CC(C)(C)C(=O)N2C [Compound I-246, N-(cyclobutylmethyl)-4-(9-cyclopentyl-5,7,7-trimethyl-6-oxo-6,7,8,9-tetrahydro-5H-pyrimido[4,5-b][1,4]diazepin-2-ylamino)-3-methoxybenzamide]",< 10 nM
